Experimental findings from US20260041744A1, “Methods for Treating Pompe Disease” (Amicus Therapeutics, Inc., priority 2022, published 2026) are described below.

“Also recorded” adds a separate entry of the source.

For one data set, the system named is Gaa KO mice. In words: Muscle biomarkers LAMP1, LC3, dysferlin in Gaa KO mice (staining, western blot). In kind it is in vivo, mouse. Conditions: for LC3 II level / autophagy, western blot: mouse, in vivo. How it is done: The therapeutic effects of ATB200 and miglustat were evaluated and compared against those of Alglucosidase alfa in Gaa KO mice. For the study, male Gaa KO (3-to 4-month old) and age-matched wild-type (WT) mice were used. Alglucosidase alfa was administered via bolus tail vein intravenous (IV) injection. In the co-administration regimen, miglustat was administered via oral gavage (PO) 30 minutes prior to the IV injection of ATB200. Treatment was given biweekly. Treated mice were sacrificed after 14 days from the last administration and various tissues were collected for further analysis. Table 11 summarizes the study design:
Tissue samples were also analyzed for biomarker changes following the methods discussed in: Khanna R, et al. (2012), “The pharmacological chaperone AT2220 increases recombinant human acid α-glucosidase uptake and glycogen reduction in a mouse model of Pompe disease,” Plos One 7(7): e40776; and Khanna, R et al. (2014), “The Pharmacological Chaperone AT2220 Increases the Specific Activity and Lysosomal Delivery of Mutant Acid a-Glucosidase, and Promotes Glycogen Reduction in a Transgenic Mouse Model of Pompe Disease,” PLOS ONE 9(7): e102092.
Similarly, intense LC3-positive aggregates in the muscle fibers of untreated Gaa KO mice signify the presence of autophagic zones and autophagy build-up. […] A similar observation was made when the expression of LC3 was assessed using western blot. […] In comparison, the effect of alglucosidase alfa on autophagy was modest.
Dysferlin, a protein involved in membrane repair and whose deficiency/mistrafficking is associated with a number of muscular dystrophies, was also assessed.
Background: In western blotting, separated proteins are transferred to a membrane and probed.

Data set [1] relates to adult subjects with LOPD. Kind of data set: Study ATB200-07 (OLE): Hex4. Conditions: for Hex4, mean BSL: Study ATB200-03 baseline, OLE-ES Population excluding Subject 4005-2511; for Hex4, mean 52-wk CFB: change from ATB200-03 baseline at Week 52; for Hex4, mean 52-wk CFB / Hex4, mean 104-wk CFB: OLE-ES excluding Subject 4005-2511; for Hex4, mean 104-wk CFB: change from ATB200-03 baseline at Week 104, alglucosidase alfa/placebo group switched to cipaglucosidase alfa/miglustat at Week 52.
Procedure: The Phase III double-blind PROPEL study (NCT03729362; ATB200-03) described in Examples 9 and 10 above compared the investigational two-component therapy cipaglucosidase alfa/miglustat (cipa/mig) with alglucosidase alfa/placebo (alglu) in adults with late-onset Pompe disease (LOPD) over 52 weeks. The ongoing open-label extension (OLE) of PROPEL (NCT04138277; ATB200-07) evaluates long-term safety and efficacy of cipa/mig. Outcomes include 6 minute walk distance (6MWD), forced vital capacity (FVC), creatine kinase (CK) and hexose tetrasaccharide (Hex4) levels and safety. Data are reported as change from the PROPEL baseline to OLE week 52 (104 weeks after the PROPEL baseline).

For data set [2], the system named is adult subjects with late-onset Pompe disease (LOPD). Kind of data set: Study ATB200-03: summary across primary, secondary and biomarker endpoints (incl. SVC, FVC supine, MIP, MEP, SNIP, MMT upper/overall, QMT, TUG). Conditions: ITT excluding outlier subject.
Source text: • overall physical wellbeing • effort of breathing • muscle strength • muscle function • ability to move around • activities of daily living • energy level • level of muscular pain • actual value of the subject's functional status (improving, stable, or declining) at Week 52, as measured by the Physician's Global Impression of Change • change from baseline to Week 52 in the following measures of pulmonary function, as follows: • sitting FVC (% predicted) • MIP (cmH2O) • MIP (% predicted) • MEP (cmH2O) • MEP (% predicted) • SNIP (cmH2O)
For data set [3], the system named is LOPD population (PROPEL target population). In words: Multi-level network meta-regression (ML-NMR) indirect treatment comparison, 6MWD and FVC change from baseline at week 52. Details: species or system human. Conditions: for relative effect, sensitivity analysis (RCT data only), 6MWT and FVC: base-case scenario. How it is done:
Using patient-level data from the PROPEL randomized clinical trial (RCT) plus aggregate published data from other RCTs, Phase I/II and open label extension trials, a multi-level network meta-regression was conducted, adjusting for various baseline covariates including previous ERT duration. The base case scenario had covariates resembling the PROPEL population (naïve and ERT-experienced) and analyzed 6MWD and FVC change from baseline at 52 weeks.
An ITC providing relative effect estimates in the target population of interest (ie an LOPD population including a mix of ERT-naïve and ERT-experienced subjects as in the pivotal Phase III trial comparing Cipa+mig with Alglu [PROPEL]) was performed.
A systematic literature review (SLR) was conducted to identify relevant published clinical studies of ERTs in LOPD. Outcomes assessed were change from baseline in 6-minute walking distance (6MWD) (m) and in forced vital capacity (FVC; % predicted) at week 52, acknowledged by clinicians, HTA agencies and payers as key LOPD trial endpoints. Aggregate results on 6MWD and FVC change from baseline over time and baseline characteristics (age, gender, ethnicity, previous ERT duration, baseline 6MWD and baseline FVC) were extracted from included studies.
A multi-level network meta regression (ML-NMR) was performed, which is an extension of standard network meta-analyses (NMAs) that take into account the effect of study-level covariates, and that can be applied to any connected network with any mixture of individual patient-level data (IPD) and aggregate data. ML-NMR is an accepted method by the National Institute for Health and Care Excellence (NICE) in support of cost effectiveness analysis. Single-arm study results were matched to appropriate comparator arms of the comparative studies to allow for inclusion into the network. Mean treatment differences with associated 95% credible intervals (CrIs) were calculated for 6MWD and FVC change from baseline at week 52.
A base-case scenario was evaluated in which all covariates were set to the target population of the PROPEL trial. To study the impact of previous ERT duration on relative effects, ERT duration value was varied, keeping remaining covariate values as in the base-case scenario. A sensitivity analysis was performed by excluding all matched single-arm evidence from the network to assess its impact on the results.
Both fixed effects (FE) and random effects (RE) ML-NMR models were applied and the deviance information criteria (DIC) was used to assess goodness-of-fit of the models and to identify the appropriate model (FE or RE model) for the data. Models were implemented in a Bayesian framework using Stan with help of the R package multinma.
In the base-case scenario, the covariates were set to the baseline characteristics of the target population (ie the PROPEL trial; see Table 20), and time was set to 52 weeks.

Data set [4] concerns adult subjects with LOPD. In words: Study ATB200-07 (OLE): GSGC. Format: in vivo, human. Conditions: for GSGC, mean BSL: Study ATB200-03 baseline, OLE-ES Population excluding Subject 4005-2511; for GSGC, mean 52-wk CFB: change from ATB200-03 baseline at Week 52, decrease indicates improvement; for GSGC, mean 52-wk CFB / GSGC, mean 104-wk CFB: OLE-ES excluding Subject 4005-2511; for GSGC, mean 104-wk CFB: change from ATB200-03 baseline at Week 104, alglucosidase alfa/placebo group switched to cipaglucosidase alfa/miglustat at Week 52.
Source text: (§1) Analysis populations presented in this summary are 1) the OLE-ES Population (all subjects who satisfied the eligibility requirements (based on the inclusion and exclusion criteria) and entered Study ATB200-07 and 2) the OLE-FAS Population (all subjects who entered the OLE Study ATB200-07 who had both a valid ATB200-07 baseline and at least 1 post-baseline assessment for at least 1 of the 6 main efficacy endpoints [6MWD, sitting % predicted FVC, MMT-lower extremities, PROMIS-Physical Function, PROMIS-Fatigue, and GSGC]).

Data set [5] relates to adult subjects with LOPD. In words: Study ATB200-07 (OLE): PROMIS-Physical Function. Format: in vivo, human. Conditions: for PROMIS-Physical Function, mean BSL: Study ATB200-03 baseline, OLE-ES Population excluding Subject 4005-2511; for PROMIS-Physical Function, mean 52-wk CFB: change from ATB200-03 baseline at Week 52; for PROMIS-Physical Function, mean 52-wk CFB / PROMIS-Physical Function, mean 104-wk CFB: OLE-ES excluding Subject 4005-2511; for PROMIS-Physical Function, mean 104-wk CFB: change from ATB200-03 baseline at Week 104, alglucosidase alfa/placebo group switched to cipaglucosidase alfa/miglustat at Week 52.
Source text: as §1

alglucosidase alfa [reference compound]: in the data set with Gaa KO mice, the “LC3 II level / autophagy, western blot” value is “modest”. Moreover, in the data set with adult subjects with LOPD [1], the “Hex4, mean BSL” value worked out at 7.0; the “Hex4, mean 52-wk CFB” value is on record as 1.6; the “Hex4, mean 104-wk CFB” value is −2.7. In data set [2], the “parameters with statistically significant decline from baseline at Week 52” value was “GSGC, FVC sitting, FVC supine, SVC sitting, and CK”; the “parameters with statistically significant improvement from baseline at Week 52” value is on record as “not observed for any parameters”. Besides, in data set [3], the “relative effect, sensitivity analysis (RCT data only), 6MWT and FVC” value was “numerically favourable versus placebo”. Besides, in the data set on adult subjects with LOPD [4], the “GSGC, mean BSL” value was determined as 14.3; the “GSGC, mean 52-wk CFB” value stood at 0.9; the “GSGC, mean 104-wk CFB” value is recorded as 0.3. Further, in the data set on adult subjects with LOPD [5], the “PROMIS-Physical Function, mean BSL” value stood at 67.9; the “PROMIS-Physical Function, mean 52-wk CFB” value is listed as 0.3; the “PROMIS-Physical Function, mean 104-wk CFB” value was −0.4.

For the substance “ATB200/miglustat: two-component therapy: cipaglucosidase alfa (ATB200) administered in conjunction with miglustat (AT2221), a stabilizer of cipaglucosidase alfa”, the “LC3 II level / autophagy, western blot” value in the data set on Gaa KO mice is reported as “significant decrease in levels of LC3 II”. The “LAMP1-positive vesicles in muscle fibers” value with Gaa KO mice (vastus lateralis) is “led to more fibers with normalized LAMP1 level”. Moreover, in the data set with Gaa KO mice (vs alglucosidase alfa), the “LC3-positive aggregates in muscle fibers” value was “preferentially reduced” and the “dysferlin localisation in muscle fibers” value is listed as “able to restore dysferlin to the sarcolemma in a greater number of muscle fibers”. In addition, the “Hex4 course to Week 104” value in the data set with adult subjects with LOPD [1] (OLE-ES Population, listed as cipaglucosidase alfa/miglustat) was “CK and Hex4 declined substantially through Study ATB200-03, then stabilized through Study ATB200-07; also recorded: decreased substantially after subjects switched to cipaglucosidase alfa/miglustat through Week 104”. For the same substance, in the data set with adult subjects with LOPD [1], the “Hex4, mean BSL” value worked out at 4.6; the “Hex4, mean 52-wk CFB” value is −2.0; the “Hex4, mean 104-wk CFB” value was −2.1. Besides, in data set [2], the “parameters with statistically significant decline from baseline at Week 52” value was “SVC sitting”; the “parameters with statistically significant improvement from baseline at Week 52” value is 6MWD, % predicted 6MWD, MMT lower extremities, MMT upper extremities, overall MMT, PROMIS-Physical Function, PROMIS-Fatigue, CK, and Hex4. Besides, in data set [3] (base case, 52 weeks), the “6MWD relative effect vs alglucosidase alfa” value is reported as 16.3 meters, the “6MWD relative effect vs avalglucosidase alfa” value came out at 29.5 meters, the “FVC relative effect vs alglucosidase alfa” value is given as 3.1% and the “FVC relative effect vs avalglucosidase alfa” value worked out at 2.8%. Also, the “relative effect, sensitivity analysis (RCT data only), 6MWT and FVC” value in data set [3] is “statistically favourable versus Alglu; numerically unfavourable versus Aval; numerically favourable versus placebo (6MWT and FVC)”. Further, in data set [3] (base-case scenario / by ERT duration, listed as Cipa+mig), the “relative effect, main analysis, 6MWD and FVC” value is “statistically significant favourable effect versus Alglu and Aval; also recorded: numerically favourable effect versus placebo; also recorded: for FVC, Cipa+mig was only numerically favorable vs. Aval in the ERT-naïve setting”. Also, in data set [3] (naïve subjects), the “FVC relative effect vs Aval” value is listed as 0.4%. In the data set on adult subjects with LOPD [4], the “GSGC, mean BSL” value was 14.4; the “GSGC, mean 52-wk CFB” value is reported as −0.6; the “GSGC, mean 104-wk CFB” value is reported as −1.0. Besides, in the data set with adult subjects with LOPD [5], the “PROMIS-Physical Function, mean BSL” value was 67.0; the “PROMIS-Physical Function, mean 52-wk CFB” value is 2.2; the “PROMIS-Physical Function, mean 104-wk CFB” value came out at 2.3.
